These results are taken from publication PMC7483518, “Destabilizing single chain major histocompatibility complex class I protein for repurposed enterokinase proteolysis” (Scientific Reports, 2020).

Several values for one entry are separate records, joined by “and”; a condition that tells them apart may be missing. Identical values can stand only once. Like-named read-outs stand apart in the source and are kept apart here.

The target of experiment [1] is T1, photo-labile unchained HLA-A*11:01 MHC-I protein (Homo sapiens, UniProt P04439, A114D/D185E/E176A/F33Y/L180Q/S129P/T187R).
T1 construct: made in house
In words: Photo-labile unchained MHC-I protein treated with UV, peptides and enterokinase (SDS-PAGE band volume). The format is biochemical. Conditions: for vol: mean Adj. Volume of the 2 replicates; for Batch Mean: mean of the 2 replicates of EZ50kD.

Experiment [2] deals with photolabile unchained HLA-A*11:01 pMHC-I protein (Homo sapiens, UniProt P04439, A114D/D185E/E176A/F33Y/L180Q/S129P/T187R). Put plainly: ELISA with photolabile unchained pMHC-I protein and UV irradiation. The format is binding. (In an ELISA, binding on a coated surface is turned into a signal by an enzyme label.)
The test system of experiment [3] is HLA-A*11:01 single chain protein. The format is biochemical, Human. Details: EZ50kDa / EZ50kD (pH 6.2) / EZ50kD (pH 8) / EZ50kD (normalised: EBV1101 = 1, EBV0201 = 0) / EZ50kDa rank: unit not given beside the values. Conditions: for vol: mean Adj. Volume of the 2 replicates; for Batch Mean: mean of the 2 replicates of EZ50kD; for EZ50kDa: Table 3, EGFR peptide library (n = 177, duplicated), pH 6.2, 37 °C, 14 h, enterokinase, Eq. (4).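 For EZ50kDa: intact 50 kDa band volume scaled with positive control peptide as 1 and negative as 0.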

Where [4] appears, read: EGFR mutation peptide library and control peptides, HLA-A*11:01, mean, STDEV.

Consider FGSLLDYVREHK [CS1048], for which, in experiment [1], the vol was found to be 12972708 and the “Batch Mean” value came to 0.7597. In experiment [2], this sequence returned an EASY_mean of 0.1889. In experiment [3], the vol stood at 7729416 and the “Batch Mean” value was found to be 0.09362.
“VAIKTSPKANK [EX1018, EGFR exon 19 deletion-derived peptide]”: in experiment [1], the vol came to 8041509 and the “Batch Mean” value came out at 0.2261. This sequence also showed an EASY_mean in experiment [2] ([…], mean, STDEV) of 0.2323. This sequence also showed an EZ_mean in experiment [3] (EASY MHC-I A*11:01, 2019-07-26, mean of the 2 replicates) of 0.2216. In experiment [3], the EZ50kDa is 0.2 and 0.222 ± 0.010; the vol was found to be 9218005; the “Batch Mean” value is on record as 0.1404.
With MQLMPFGCLLDY [TM1050], in experiment [1], the vol was determined as 5027054 and the “Batch Mean” value was -0.2574. Besides, the EASY_mean in experiment [2] amounted to 0.2124. Also, in experiment [3], the EZ_mean is 0.09599, the EZ50kDa was 0.0956 ± 0.004, the vol came out at 8153341 and the “Batch Mean” value is recorded as 0.1072.
SLLDYVREH [CS1017]: in experiment [1], the vol was determined as 10431446 and the “Batch Mean” value is recorded as -0.3978. The same sequence registered an EASY_mean in experiment [2] of 0.4725. In experiment [3] (EASY MHC-I A*11:01, 2019-08-01, mean of the 2 replicates), this sequence yielded an EZ_mean of 0.7333. In addition, the “EZ MHC-I stability with HLA-A*11:01 single chain protein” value in experiment [3] (Fig. 2f,g, EGFR peptide library) is on record as “strongly stabilizing”. In addition, in experiment [3], the EZ50kDa was 0.733 ± 0.140, the vol stood at 26057980 and the “Batch Mean” value came out at 0.6595.
Regarding SLLDYVREHKDN [CS1050], in experiment [1], the vol is on record as 12012525 and the “Batch Mean” value is recorded as -2.24. This sequence also had an EASY_mean in experiment [2] of 0.2031. For the same sequence, in experiment [3], the EZ50kDa was found to be 0.0255 ± 0.005, the vol is 7574013 and the “Batch Mean” value was determined as 0.08881.
On to SLLDYVREHK [CS1027], for which, in experiment [1], the vol amounted to 11075589 and the “Batch Mean” value was -1.466. Besides, the EASY_mean in experiment [2] (setting [4]) came out at 0.7046. In experiment [3], this sequence displayed an EZ_mean of 0.9134, a Norm_mean of 1.317, an EZ50kDa of 0.811 ± 0.171 and a vol of 29201845. In addition, the “Batch Mean” value in experiment [3] was found to be 0.7556.
With QLMPFGSLLDY [CS1032], in experiment [1], the vol is 11215354 and the “Batch Mean” value is -0.05053. Moreover, the EASY_mean in experiment [2] (setting [4]) is reported as 0.7325. In experiment [3], this sequence showed an EZ_mean of 0.8691, a Norm_mean of 1.167, an EZ50kDa of 0.869 ± 0.174 and a vol of 30217126. For the same sequence, the “Batch Mean” value in experiment [3] is listed as 0.787.
With GSLLDYVREHK [CS1037], in experiment [1], the vol is listed as 9517473 and the “Batch Mean” value is given as -1.196. Moreover, in experiment [2], the EASY_mean was 0.5397. In experiment [3], the EZ_mean amounted to 0.3673, the EZ50kDa is 0.367 ± 0.022, the vol turned out to be 11854307 and the “Batch Mean” value stood at 0.2216.
Consider KITDFGRAKL [LR1021], for which, in experiment [2] ([…], mean, STDEV), the EASY_mean was -0.0154. Besides, the EZ_mean in experiment [3] was -0.05252.
